In US6068687A, “Azo dyes and their preparation and use” (Ilford Imaging Switzerland GmbH, priority 1997, dated 2000):

Columns and labels:
[1] = Jetting stability of inks (IRIS ink jet printer nozzle); design: key: ⊕: Unchanged; .diamond.: Slightly changed; .O slashed.: Heavily changed; details: 100 hours continual jetting, exit angle and nozzle condition
Procedure: (§1) 100 g of each ink were prepared by heating the necessary components from Table 3 (all amounts are indicated in grams) together with water at a temperature of 50° C. under stirring for one hour. The resulting solution was cooled down to 20° C., its pH value was adjusted to 7.5 and the solution was passed through a Millipore® filter of 0.5 μm pore diameter.
The inks were expelled continually during 100 hours from a nozzle of the IRIS ink jet printer. Afterwards the change of the exit angle of the ink stream and the condition of the nozzle were evaluated in the following way: […]

[2] = Hydrolysis stability (pH change of 5% aqueous dye solution on storage); type: physicochemical; details: for pH change during storage: 5% by weight aqueous solution, initial pH 7.0, 60° C, 30 days; for Stability against hydrolysis compared with known dye (2) (in words): comparison with dye (2), Table 4
Procedure: An aqueous solution (5% by weight) was prepared and the pH value of this solution was adjusted to 7.0. The solution was filtered through a Millipore® filter of 0.5 μm pore diameter. The filtered solution was then heated to a temperature of 60° C. for 30 days, cooled down afterwards to a temperature of 20° C. and the pH value was measured again. The difference of the pH values before and after storage is an indicator of hydrolysis stability.

[3] = Dye solubility in deionised water (spectroscopic determination in filtered solution); type: physicochemical; details: for Solubility: deionised water, stirred 1 hour at 50° C, cooled to 20° C, filtered; for Solubility compared with previously known dye (in words): comparison with known dye, Table 4
Procedure: An excess of dye was dispersed in deionised water and this dispersion was stirred for 1 hour at 50° C. Then the mixture was cooled down to 20° C., centrifuged and filtered through a Millipore® filter of 0.5 μm pore diameter. Dye solubility was determined spectroscopically in the filtered solution.

[4] = Storage stability of inks (precipitation); type: physicochemical; design: key: ⊕: No precipitation; .diamond.: Slight precipitation; .O slashed.: Heavy precipitation; details: ink, 0° C, 30 days, hermetically sealed bottles
Procedure: as §1
The inks were stored at a temperature of 0° C. for 30 days in hermetically sealed bottles. The quantity of precipitate eventually formed was evaluated in the following way: […]

Compound	(D) Jetting stability [1]	pH change during storage [2]	Solubility [3] [g per 100 ml]	(C) Storage stability [4]	Stability against hydrolysis compared with known dye (2) (in words) [2]	Solubility compared with previously known dye (in words) [3]
Nc1ccc2cc(S(=O)(=O)O)cc(O)c2c1N=Nc1ccc(Nc2nc(NCCO)nc(Nc3cccc(S(=O)(=O)O)c3)n2)cc1S(=O)(=O)O [(1)]	.diamond.	-0.2	12	.diamond.		
COc1cc(N=Nc2cc(S(=O)(=O)O)c3cccc(S(=O)(=O)O)c3c2)c(C)cc1Nc1nc(SCCCS(=O)(=O)O)nc(SCCCS(=O)(=O)O)n1 [(2)]	⊕	-0.5	34	⊕		
CCOc1nc(Nc2cc(C)c(N=Nc3cc(S(=O)(=O)O)c4cccc(S(=O)(=O)O)c4c3)cc2OC)nc(SCCCS(=O)(=O)O)n1 [(100)]	⊕	0	32	⊕	much better stability against hydrolysis than the known dye (2)	considerably higher solubility than the previously known dye (2)
CCOc1nc(Nc2ccc(N=Nc3c(N)ccc4cc(S(=O)(=O)O)cc(O)c34)c(S(=O)(=O)O)c2)nc(SCCCS(=O)(=O)O)n1 [(113)]	⊕	-0.1	32	⊕	much better stability against hydrolysis than the known dye (2)	considerably higher solubility than the previously known dye (2)
CCN(c1ccccc1)c1nc(Nc2cc(S(=O)(=O)O)cc3cc(S(=O)(=O)O)c(N=Nc4ccccc4S(=O)(=O)O)c(O)c23)nc(SCCCS(=O)(=O)O)n1 [(117)]	⊕			⊕		
COc1cc(N=Nc2cc(S(=O)(=O)O)c3cccc(S(=O)(=O)O)c3c2)c(C)cc1Nc1nc(SCCCS(=O)(=O)O)nc(N(C)CCO)n1 [(120)]	⊕	0	34	⊕	much better stability against hydrolysis than the known dye (2)	considerably higher solubility than the previously known dye (2)
Nc1ccc2cc(S(=O)(=O)O)cc(O)c2c1N=Nc1ccc(Nc2nc(SCCCS(=O)(=O)O)nc(N(CCO)CCO)n2)cc1S(=O)(=O)O [(121)]	⊕	-0.1	38	⊕	much better stability against hydrolysis than the known dye (2)	considerably higher solubility than the previously known dye (2)
